These are literature values, as cited in patent publication US9717704B2, “Method of treating, delaying and/or preventing Alzheimer's Disease” (Smartfish AS, priority 2013, dated 2017).

The subject of data set [1] is PBMCs / macrophages of AD patients. Particulars: in vitro (Mizwicki et al. 2013).
The test system of the next data set is amyloid-beta. As to conditions: cell lines (Marambaud, Zhao et al. 2005).

Consider `C=C1/C(=C\C=C2/CCC[C@]3(C)[C@@H]([C@H](C)CCCC(C)(C)O)CC[C@@H]23)C[C@@H](O)C[C@@H]1O` [1,25dihydroxyvitamin D3], for which, in data set [1], the Abeta phagocytosis entry is on record as “repair” and the “deregulation of inflammatory genes” value was “repair the deregulation of these genes”.

In the case of `Oc1ccc(/C=C/c2cc(O)cc(O)c2)cc1` [Resveratrol, 3,5,4′-trihydroxy-trans-stilbene], the “proteasome degradation of amyloid-beta” value with amyloid-beta is “promote proteasome degradation of amyloid-beta”.

For the compound `CC/C=C\C[C@H](O)/C=C/C=C\C=C\C=C\[C@@H](O)[C@@H](O)C/C=C\CCC(=O)O` [resolvin D1], in data set [1], the Abeta phagocytosis entry is recorded as “repair” and the “deregulation of inflammatory genes” value is listed as “repair the deregulation of these genes”.
